These results are taken from ChEMBL document CHEMBL1201862, “PubChem BioAssay data set” (2004).

Experiment [1] has as its target T1, Caspase-3 (Homo sapiens, UniProt P42574).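 Also: Dose-response selectivity test against caspase-3 for candidate inhibitors of sentrin-specific proteases (SENPs).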
T1 sequence (P42574 whole entry): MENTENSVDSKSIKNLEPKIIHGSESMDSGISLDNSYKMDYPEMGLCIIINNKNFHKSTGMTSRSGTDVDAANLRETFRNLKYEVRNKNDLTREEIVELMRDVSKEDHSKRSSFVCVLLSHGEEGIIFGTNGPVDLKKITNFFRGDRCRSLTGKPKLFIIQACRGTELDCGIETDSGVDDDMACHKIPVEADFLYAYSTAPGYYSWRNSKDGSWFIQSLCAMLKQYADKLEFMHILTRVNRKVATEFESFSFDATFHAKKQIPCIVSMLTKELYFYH
Format: functional.

Experiment [2] concerns the target T2, Histone-lysine N-methyltransferase NSD2 (Homo sapiens, UniProt O96028).
T2 sequence (O96028 whole entry): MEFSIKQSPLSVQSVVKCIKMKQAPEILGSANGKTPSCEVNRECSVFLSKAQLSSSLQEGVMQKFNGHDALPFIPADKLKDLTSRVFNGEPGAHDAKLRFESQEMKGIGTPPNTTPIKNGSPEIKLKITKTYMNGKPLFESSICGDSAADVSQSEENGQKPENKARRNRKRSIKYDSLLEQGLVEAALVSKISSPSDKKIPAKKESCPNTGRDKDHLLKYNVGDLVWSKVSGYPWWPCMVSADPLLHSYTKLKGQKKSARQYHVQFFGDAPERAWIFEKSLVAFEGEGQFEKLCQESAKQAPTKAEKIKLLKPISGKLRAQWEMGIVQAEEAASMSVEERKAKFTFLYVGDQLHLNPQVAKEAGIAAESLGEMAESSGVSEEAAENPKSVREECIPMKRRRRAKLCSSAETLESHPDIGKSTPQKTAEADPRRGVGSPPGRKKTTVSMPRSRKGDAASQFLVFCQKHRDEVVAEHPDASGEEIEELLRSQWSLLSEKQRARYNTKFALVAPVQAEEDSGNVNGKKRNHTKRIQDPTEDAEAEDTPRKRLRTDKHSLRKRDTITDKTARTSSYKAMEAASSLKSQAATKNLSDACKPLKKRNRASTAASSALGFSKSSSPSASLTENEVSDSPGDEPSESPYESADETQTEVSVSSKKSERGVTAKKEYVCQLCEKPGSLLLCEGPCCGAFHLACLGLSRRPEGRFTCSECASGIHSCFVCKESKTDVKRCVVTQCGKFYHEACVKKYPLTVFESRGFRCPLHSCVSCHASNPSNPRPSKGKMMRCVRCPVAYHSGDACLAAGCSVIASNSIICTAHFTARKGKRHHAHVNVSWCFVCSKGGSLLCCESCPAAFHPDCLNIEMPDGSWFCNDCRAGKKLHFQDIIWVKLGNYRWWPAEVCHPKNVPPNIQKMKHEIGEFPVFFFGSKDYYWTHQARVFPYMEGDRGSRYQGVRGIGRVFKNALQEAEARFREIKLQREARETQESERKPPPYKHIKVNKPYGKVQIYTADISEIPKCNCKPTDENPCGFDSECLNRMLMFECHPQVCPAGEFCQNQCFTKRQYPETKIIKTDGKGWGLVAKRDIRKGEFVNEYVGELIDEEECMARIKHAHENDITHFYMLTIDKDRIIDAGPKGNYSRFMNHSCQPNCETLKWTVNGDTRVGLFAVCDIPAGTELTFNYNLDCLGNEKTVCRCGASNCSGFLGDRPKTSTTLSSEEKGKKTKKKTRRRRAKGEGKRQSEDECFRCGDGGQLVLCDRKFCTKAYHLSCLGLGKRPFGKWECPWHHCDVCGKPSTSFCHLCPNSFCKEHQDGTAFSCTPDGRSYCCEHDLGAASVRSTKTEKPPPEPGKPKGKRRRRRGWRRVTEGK
Format: biochemical.

Experiment [3] addresses T3, Replicative DNA helicase DnaB (Mycobacterium tuberculosis, UniProt P9WMR3).
T3 sequence (P9WMR3 whole entry): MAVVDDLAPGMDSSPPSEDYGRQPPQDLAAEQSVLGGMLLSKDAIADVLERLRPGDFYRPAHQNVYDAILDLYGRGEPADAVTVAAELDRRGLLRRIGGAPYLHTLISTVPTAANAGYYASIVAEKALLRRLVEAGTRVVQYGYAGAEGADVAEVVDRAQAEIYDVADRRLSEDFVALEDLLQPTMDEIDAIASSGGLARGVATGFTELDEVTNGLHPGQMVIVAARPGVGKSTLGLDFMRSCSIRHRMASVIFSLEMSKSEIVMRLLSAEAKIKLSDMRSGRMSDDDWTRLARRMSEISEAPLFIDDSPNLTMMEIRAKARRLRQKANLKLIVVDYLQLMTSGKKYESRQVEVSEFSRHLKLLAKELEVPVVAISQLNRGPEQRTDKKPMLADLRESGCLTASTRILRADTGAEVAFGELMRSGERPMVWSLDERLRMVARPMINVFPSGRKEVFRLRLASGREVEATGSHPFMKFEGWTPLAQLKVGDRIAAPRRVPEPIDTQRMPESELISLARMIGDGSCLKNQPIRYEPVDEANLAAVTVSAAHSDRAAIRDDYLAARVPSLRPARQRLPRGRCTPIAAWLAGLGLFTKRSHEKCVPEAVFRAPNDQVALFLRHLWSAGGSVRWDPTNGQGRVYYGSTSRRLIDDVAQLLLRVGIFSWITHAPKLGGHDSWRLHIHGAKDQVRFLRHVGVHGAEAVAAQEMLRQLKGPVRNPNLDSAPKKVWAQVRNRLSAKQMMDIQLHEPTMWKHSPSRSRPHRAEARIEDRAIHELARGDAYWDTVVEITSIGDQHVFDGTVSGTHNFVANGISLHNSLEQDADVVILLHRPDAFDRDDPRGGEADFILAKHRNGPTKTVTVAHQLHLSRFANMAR
The experiment can be described thus: DnaB intein splicing inhibitors, dose response, biochemical, cell-free fluorescence (AID 449749). Format: functional.

Calls of active or inactive are those of the source. Rule as the data show it, for most assays here: actives have a measured AC50 and inactives only a lower limit.

In general, IC50 refers to the concentration needed to halve the response being measured. For orientation: AC50 means the midpoint of the concentration-response curve, whichever way the signal moves. For the molecule `O=C(NC1(O)C(=O)c2ccccc2C1=O)c1ccc(C(F)(F)F)cc1`, the IC50 in experiment [1] is 94.5 µM (active). Moreover, the AC50 in experiment [2] was 3.39 µM (active).
For `Cn1c(=O)[nH]c(=O)c2c1nc([N+](=O)[O-])n2Cc1ccccc1`, the concentration at half-maximal activity (AC50) in experiment [3] was 26.2 µM (active).
As for `O=C(NC1(O)C(=O)c2ccccc2C1=O)c1c(Cl)cccc1Cl`, the concentration at half-maximal activity (AC50) in experiment [3] was 17.3 µM (active); in experiment [2], 3.16 µM (active). The IC50 in experiment [1] is > 100 µM (inactive).
As to `O=C(COC(=O)c1ccc([N+](=O)[O-])s1)Nc1ncc(C(F)(F)F)cc1Cl`, in experiment [1], the IC50 was 10 µM (active). Besides, the concentration at half-maximal activity (AC50) in experiment [2] is 12.5 µM (active).
Regarding `CCN(c1ccccc1)c1cc2ccccc2c(=O)[nH]1`, in experiment [3], the AC50 is > 380 µM (inactive). In addition, the IC50 in experiment [1] is 2.69 µM (active).
